{
  "source": "patent US20160264593A1",
  "about": "(priority 2013, published 2016)",
  "test": "in vivo",
  "settings": "male, rat, in vivo; for AUC(0-t): AUC0-t of 100; for AUC(0-inf): AUC0-∞ of 100; for Cmax: Cmax of 100; for Tmax: Tmax of 100; for MRT: MRT of 100; for half-life: T1/2 of 100",
  "protocol": "A pharmacokinetic study of 151 was conducted in SD rats. The study consisted of two dose levels at 1.0 (iv) and 10 (oral) mg/kg. The blood samples were collected at predetermined times from rats and centrifuged to separate plasma. An LC/MS/MS method was developed to determine the test article in plasma samples. The pharmacokinetic parameters of 151 following iv and oral administration to SD rats were calculated. The absolute bioavailability was evaluated.\nThe final concentration of the test article was 0.2 mg/mL for iv administration and 1.0 mg/mL for oral administration. The test article solutions were administered using the most recent body weight for each animal.\nBlood (approximately 0.3 mL) were collected via orbital plexus into tubes containing sodium heparin at 0.25, 0.5, 1, 2, 3, 5, 7, 9, and 24 hours after oral administration; at 5 min, 15 min, 0.5, 1, 2, 3, 5, 7, 9 and 24 hours after iv administration. Samples were centrifuged for 5 min, at 4° C. with the centrifuge set at 11,000 rpm to separate plasma. The obtained plasma samples were stored frozen at a temperature of about −70° C. until analysis.\nFrozen plasma samples were thawed at room temperature and vortexed thoroughly. With a pipette, an aliquot (30 μL) of plasma was transferred into a 1.5-mL conical polypropylene tube. To each sample, 160 μL of acetonitrile were added. The samples were then vigorously vortex-mixed for 1 min. After centrifugation at 11000 rpm for 5 min, a 15 μL aliquot of the supernatant was injected into the LC-MS/MS system for analysis.\nCalibration standards were prepared by spiking 30 μL of the 151 standard solutions into 30 μL of heparinized blank rat plasma. The nominal standard concentrations in the standard curve were 1.00, 3.00, 10.0, 30.0, 100, 300, 1000 and 3000 ng/mL.\nThe analysis was performed using an LC-MS/MS system consisting of the following components—HPLC system: Agilent 1200 series instrument consisting of G1312B vacuum degasser, G1322A binary pump, G1316B column oven and G1367D autosampler (Agilent, USA); MS/MS system: Agilent 6460 triple quadrupole mass spectrometer, equipped with an APCI Interface (Agilent, USA); Data system: MassHunter Software (Agilent, USA).\nChromatographic separation was carried out at room temperature—Analytical column: C8 column (4.6 mm×150 mm I.D., 5 μm, Agilent, USA); Mobile phase: Acetonitrile:10 mM ammonium acetate (75:25, v/v); Flow rate: 0.80 mL/min; Injection volume: 15 μL.\nThe mass spectrometer was operated in the positive mode. Ionization was performed applying the following parameters: gas temperature, 325° C.; vaporizer temperature, 350° C.; gas flow, 4 L/min; nebulizer, 20 psi; capillary voltage, 4500 V; corona current, 4 μA. 151 was detected using MRM of the transitions m/z 283→m/z 123 and m/z 283→m/z 251, simultaneously. The optimized collision energies of 25 eV and 10 eV were used for m/z 123 and m/z 251, respectively.\nQuantification was achieved by the external standard method. Concentrations of the test article were calculated using a weighted least-squares linear regression (W=1/x^2).\nThe pharmacokinetic parameters were evaluated using WinNonlin version 5.3 (Pharsight Corp., Mountain View, Calif., USA), assuming a non-compartmental model for drug absorption and distribution. • AUC0-t is the area under the plasma concentration-time curve from time zero to last sampling time, calculated by the linear trapezoidal rule. • AUC0-∞ is the area under the plasma concentration-time curve from time zero extrapolating to infinity. • T1/2 is the elimination half-life associated with the terminal (log-linear) elimination phase, which is estimated via linear regression of time vs. log concentrations. • CL is the total body clearance. • Vss is the volume of distribution at steady-state.",
  "key": {"[1]": {"settings": "Sprague-Dawley (SD), iv, 1 mg/kg, Plasma Concentration of 100"}, "[2]": {"settings": "Sprague-Dawley (SD), po, 10 mg/kg"}, "[3]": {"settings": "Sprague-Dawley (SD), po, 10 mg/kg, Plasma Concentration of 100"}},
  "data": [
    {"smiles": "CN1CCN(C(=O)C2C3CCC(O3)C2C(=O)O)CC1", "note": "(centres unmarked) [Compound 100, 3-(4-methylpiperazine-1-carbonyl)-7-oxa-bicyclo[2,2,1]-heptane-2-carboxylic acid]", "values": [
      {"measurement": "concentration at 0.083 h", "setting": "[1]", "value": 0.646, "unit": "µg/mL"},
      {"measurement": "concentration at 0.25 h", "setting": "[1]", "value": 0.345, "unit": "µg/mL"},
      {"measurement": "concentration at 0.5 h", "setting": "[1]", "value": 0.308, "unit": "µg/mL"},
      {"measurement": "concentration at 1 h", "setting": "[1]", "value": 0.257, "unit": "µg/mL"},
      {"measurement": "concentration at 2 h", "setting": "[1]", "value": 0.125, "unit": "µg/mL"},
      {"measurement": "concentration at 3 h", "setting": "[1]", "value": 0.0322, "unit": "µg/mL"},
      {"measurement": "concentration at 5 h", "setting": "[1]", "value": 0.0102, "unit": "µg/mL"},
      {"measurement": "AUC(0-t)", "setting": "[2]", "value": 3.37, "unit": "µg·h/mL"},
      {"measurement": "AUC(0-inf)", "setting": "[2]", "value": 3.43, "unit": "µg·h/mL"},
      {"measurement": "Cmax", "setting": "[2]", "value": 1.45, "unit": "µg/mL"},
      {"measurement": "concentration at 0.5 h", "setting": "[3]", "value": 1.45, "unit": "µg/mL"},
      {"measurement": "concentration at 1 h", "setting": "[3]", "value": 1.16, "unit": "µg/mL"},
      {"measurement": "concentration at 2 h", "setting": "[3]", "value": 0.781, "unit": "µg/mL"},
      {"measurement": "concentration at 9 h", "setting": "[3]", "value": 0.0313, "unit": "µg/mL"},
      {"measurement": "Tmax", "setting": "[2]", "value": 40.2, "unit": "min"},
      {"measurement": "AUC(0-t)", "setting": "Sprague-Dawley, iv, 1 mg/kg", "value": 0.681, "unit": "µg·h/mL"},
      {"measurement": "AUC(0-inf)", "setting": "Sprague-Dawley, iv, 1 mg/kg", "value": 0.694, "unit": "µg·h/mL"},
      {"measurement": "Cmax", "setting": "Sprague-Dawley, iv, 1 mg/kg", "value": 0.646, "unit": "µg/mL"},
      {"measurement": "MRT", "setting": "Sprague-Dawley, iv, 1 mg/kg", "value": 69.6, "unit": "min"},
      {"measurement": "half-life", "setting": "Sprague-Dawley, iv, 1 mg/kg", "value": 52.8, "unit": "min"},
      {"measurement": "Tmax", "setting": "Sprague-Dawley, iv, 1 mg/kg", "value": 4.98, "unit": "min"},
      {"measurement": "Cmax of 100", "setting": "Sprague-Dawley, po, 10 mg/kg", "value": 1.447, "unit": "µg/mL"},
      {"measurement": "Tmax of 100", "setting": "Sprague-Dawley, po, 10 mg/kg", "value": 30, "unit": "min"},
      {"measurement": "AUC(0-t)", "setting": "Sprague-Dawley, po, 10 mg/kg", "value": 2.79, "unit": "µg·h/mL"},
      {"measurement": "AUC(0-inf)", "setting": "Sprague-Dawley, po, 10 mg/kg", "value": 2.86, "unit": "µg·h/mL"},
      {"measurement": "Cmax", "setting": "Sprague-Dawley, po, 10 mg/kg", "value": 1.43, "unit": "µg/mL"},
      {"measurement": "MRT", "setting": "Sprague-Dawley, po, 10 mg/kg", "value": 126, "unit": "min"},
      {"measurement": "half-life", "setting": "Sprague-Dawley, po, 10 mg/kg", "value": 82.8, "unit": "min"},
      {"measurement": "Tmax", "setting": "Sprague-Dawley, po, 10 mg/kg", "value": 30, "unit": "min"}
    ]}
  ]
}
